Data reported in ChEMBL document CHEMBL1201862, “PubChem BioAssay data set” (2004).
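In this assay, cells in 96-well plates receive the compound at five concentrations for 48 hours. Endpoints are linearly interpolated between the surrounding concentrations. Here, GI50 denotes the concentration required for 50% inhibition of growth.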 Calls of active or inactive are those of the source. No stated cut-off is given here; in the data, active = GI50 up to about 1.1 µM and inactive = higher. Where a SMILES comes first, the peptide text is derived from it. [ ]: non-standard residue; d: D form. The star is where a group is joined. ξ: configuration not given here. NMeF = CN[C@@H](Cc1ccccc1)C(=O)O; NMeV = CN[C@H](C(=O)O)C(C)C; ξNMeN = CNC(CC(N)=O)C(=O)O; NMeA = CN[C@@H](C)C(=O)O; ξNMeV = CNC(C(=O)O)C(C)C; Boc = CC(C)(C)OC(=O)*

Columns and labels:
Assay in all cases: NCI anticancer screen, dose series, 48 h
DLD-1 = tested on: DLD-1
DMS-273 = tested on: DMS-273
HOP-18 = tested on: HOP-18
KM-20L2 = tested on: KM-20L2
LXFL 529 = tested on: LXFL 529
M19-MEL = tested on: M19-MEL
RXF 631 = tested on: RXF 631
SNB-78 = tested on: SNB-78
XF498 = tested on: XF498

| SMILES | GI50 (DLD-1) | GI50 (DMS-273) | GI50 (HOP-18) | GI50 (KM-20L2) | GI50 (LXFL 529) | GI50 (M19-MEL) | GI50 (RXF 631) | GI50 (SNB-78) | GI50 (XF498) |
| --- | --- | --- | --- | --- | --- | --- | --- | --- | --- |
| Cc1ccc(C)c2sc3cc(=O)ccc-3nc12 | 45.9 µM (inactive) | 39.2 µM (inactive) | > 100 µM (inactive) | 73.3 µM (inactive) | 37.7 µM (inactive) | 17.3 µM (inactive) | 92.9 µM (inactive) | > 100 µM (inactive) | – |
| N#CC(NNC(=O)Cc1ccccc1)c1ccc(O)cc1 (stereo unspecified) | > 100 µM (inactive) | > 100 µM (inactive) | > 100 µM (inactive) | – | > 100 µM (inactive) | > 100 µM (inactive) | – | – | – |
| C[C@H]1C/C=C/[C@H]2[C@@H]3O[C@]3(C)[C@@H](C)[C@H]3[C@H](Cc4ccccc4)NC(=O)[C@]32OC(=O)O/C=C/[C@@](C)(O)C1=O [CYTOCHALASIN E] | – | 0.091 µM (active) | – | 0.0248 µM (active) | – | 0.0759 µM (active) | – | 0.0189 µM (active) | 0.0183 µM (active) |
| O=C(CC(=O)Nc1ccc(Cl)cc1)NNCC(=O)Nc1nc(-c2ccccc2)cs1 | > 100 µM (inactive) | > 100 µM (inactive) | > 100 µM (inactive) | 59.6 µM (inactive) | 75.7 µM (inactive) | > 100 µM (inactive) | – | > 100 µM (inactive) | > 100 µM (inactive) |
| CC(C)(C)c1ccc(OC2CCO2)cc1 (stereo unspecified) | – | 34.4 µM (inactive) | > 100 µM (inactive) | 19.5 µM (inactive) | 54.6 µM (inactive) | 23.1 µM (inactive) | – | 49.9 µM (inactive) | – |
| O=C1/C(=C/c2ccc(O)c(O)c2)CCC/C1=C\c1ccc(O)c(O)c1 | 2.68 µM (inactive) | 2.06 µM (inactive) | 2.81 µM (inactive) | 11.6 µM (inactive) | – | 3.43 µM (inactive) | – | 2.11 µM (inactive) | 3.13 µM (inactive) |
| COc1ccccc1/C=C1\CCC(CN(C)C)C1=O (stereo unspecified) | 2.2 µM (inactive) | 6.9 µM (inactive) | 22.9 µM (inactive) | 4.24 µM (inactive) | – | 2.78 µM (inactive) | – | 9.4 µM (inactive) | 18.3 µM (inactive) |
| COc1ccccc1/N=N/C(C(=O)c1ccccc1)C(=O)c1ccccc1 | 17.6 µM (inactive) | 16.4 µM (inactive) | – | 26.3 µM (inactive) | 15.5 µM (inactive) | 15 µM (inactive) | – | – | 19.5 µM (inactive) |
| COc1ccc2c(c1)c1c3n2CCNN=C3CCC1 | > 100 µM (inactive) | > 100 µM (inactive) | > 100 µM (inactive) | > 100 µM (inactive) | > 100 µM (inactive) | > 100 µM (inactive) | 68.4 µM (inactive) | > 37.7 µM (inactive) | > 100 µM (inactive) |
| CC(C)NC(C)Cc1ccccc1 (stereo unspecified) | > 100 µM (inactive) | > 100 µM (inactive) | > 100 µM (inactive) | > 100 µM (inactive) | > 100 µM (inactive) | > 100 µM (inactive) | > 100 µM (inactive) | > 100 µM (inactive) | – |
| COC(=O)C1C=CCC2CCCCC21N1CCCC1 (stereo unspecified) | > 100 µM (inactive) | > 100 µM (inactive) | > 100 µM (inactive) | 83.2 µM (inactive) | 81.5 µM (inactive) | 59.3 µM (inactive) | > 100 µM (inactive) | > 100 µM (inactive) | – |
| O=[N+]([O-])c1ccc(/C=N/C2CCCCC2)cc1 | > 100 µM (inactive) | > 100 µM (inactive) | > 100 µM (inactive) | > 100 µM (inactive) | – | > 100 µM (inactive) | > 100 µM (inactive) | > 100 µM (inactive) | > 100 µM (inactive) |
| COC(=O)[C@H](C)N(C)C(=O)C(CC(N)=O)N(C)C(=O)[C@H](Cc1ccccc1)N(C)C(=O)[C@@H]1CCCN1C(=O)[C@H](C(C)C)N(C)C(=O)C(C(C)C)N(C)C(=O)[C@@H](NC(=O)OC(C)(C)C)C(C)C (stereo partly specified) (Boc-V[ξNMeV][NMeV]P[NMeF][ξNMeN][NMeA]-OMe) | 43.7 µM (inactive) | 55.5 µM (inactive) | – | 39.2 µM (inactive) | 24.2 µM (inactive) | 18.4 µM (inactive) | – | 50.6 µM (inactive) | 26.7 µM (inactive) |
| COc1cc(/C=C\c2ccccn2)cc(OC)c1OC | > 100 µM (inactive) | 75 µM (inactive) | > 100 µM (inactive) | 71.4 µM (inactive) | 70.5 µM (inactive) | 67.3 µM (inactive) | > 100 µM (inactive) | > 100 µM (inactive) | 16.2 µM (inactive) |
| COC(=O)C1CCc2c1c(=O)n1c([nH]c3ccccc31)c2C#N (stereo unspecified) | > 100 µM (inactive) | > 100 µM (inactive) | 2.36 µM (inactive) | > 100 µM (inactive) | > 100 µM (inactive) | > 100 µM (inactive) | – | > 100 µM (inactive) | > 100 µM (inactive) |
| [N-]=[N+]=Nc1ccc(CCN2CCN(c3cccc(C(F)(F)F)c3)CC2)cc1I | – | 72.6 µM (inactive) | – | 31.3 µM (inactive) | 50 µM (inactive) | 83 µM (inactive) | – | > 100 µM (inactive) | – |
| COC(=O)c1ccccc1OCc1cc(=O)oc2ccc(C)cc12 | 67.1 µM (inactive) | 71.3 µM (inactive) | – | 82.2 µM (inactive) | 85.7 µM (inactive) | > 100 µM (inactive) | > 100 µM (inactive) | – | 31.8 µM (inactive) |
| Oc1cc(-c2ccccc2)c2ccccc2n1 | 56 µM (inactive) | 60.5 µM (inactive) | 23.6 µM (inactive) | – | 34.2 µM (inactive) | 82.6 µM (inactive) | – | – | – |
| CCOC(=O)C1(C)C2=CC=C(O2)C(C)(C)C2=CC=C(O2)C(C)(C)C2=CC=C(O2)C(C)(C)C2=CC=C1O2 | – | > 100 µM (inactive) | > 100 µM (inactive) | > 100 µM (inactive) | > 100 µM (inactive) | > 100 µM (inactive) | > 100 µM (inactive) | > 100 µM (inactive) | > 100 µM (inactive) |
| O=C(O)c1ccc(S(=O)(=O)c2ccccc2)c([N+](=O)[O-])c1 | > 100 µM (inactive) | 63.8 µM (inactive) | > 100 µM (inactive) | > 100 µM (inactive) | > 100 µM (inactive) | > 100 µM (inactive) | – | > 100 µM (inactive) | – |
| CCC(=O)N/N=C(\C=C\c1cccc(O)c1)c1sc(Nc2ccc(C)cc2[N+](=O)[O-])nc1C | 43.6 µM (inactive) | > 100 µM (inactive) | > 100 µM (inactive) | > 100 µM (inactive) | > 100 µM (inactive) | > 100 µM (inactive) | – | > 100 µM (inactive) | – |
| Cn1nc(-c2ccccc2)c(C(=O)/C=C/c2ccccc2)c(N2CCCCC2)c1=O | 9.35 µM (inactive) | 37.7 µM (inactive) | 40.8 µM (inactive) | 10.4 µM (inactive) | > 100 µM (inactive) | – | > 100 µM (inactive) | – | – |
| CCOC(=O)C1=C(Nc2ccc(Br)cc2)OC/C1=N\NC(=O)c1ccccc1O | 18 µM (inactive) | 4.69 µM (inactive) | 70.5 µM (inactive) | > 60 µM (inactive) | 14.5 µM (inactive) | 35 µM (inactive) | – | 7.93 µM (inactive) | – |
| COC(=O)/C(C)=C(/CCC1(C)OCCO1)O[Si](C)(C)C | > 100 µM (inactive) | > 100 µM (inactive) | > 100 µM (inactive) | > 100 µM (inactive) | > 100 µM (inactive) | > 100 µM (inactive) | – | > 100 µM (inactive) | > 100 µM (inactive) |
| CC(=O)NC(CC(C)C)C(=O)NC(Cc1ccccc1)C(=S)N1CCCC1 (stereo unspecified) | – | > 100 µM (inactive) | – | > 100 µM (inactive) | > 100 µM (inactive) | > 100 µM (inactive) | > 100 µM (inactive) | – | > 100 µM (inactive) |
| Oc1cc(C2OCCCO2)cc(O)c1O | > 100 µM (inactive) | > 100 µM (inactive) | > 100 µM (inactive) | > 100 µM (inactive) | > 100 µM (inactive) | > 100 µM (inactive) | > 100 µM (inactive) | > 100 µM (inactive) | – |
| CCOC(=O)[C@H](CCCNC(=O)OC(C)(C)C)NCc1ccc(OC)c(OC)c1 | > 100 µM (inactive) | > 100 µM (inactive) | > 100 µM (inactive) | > 100 µM (inactive) | > 100 µM (inactive) | > 100 µM (inactive) | > 100 µM (inactive) | – | > 100 µM (inactive) |
